From US20260232578A1, “COMPOSITIONS AND METHODS FOR TRANSMUCOSAL ABSORPTION” (Tonix Pharma Limited, priority 2012, published 2026)
Where “and” joins values, the source holds several entries; their conditions need not be identical. Identical values can stand only once. Like-named read-outs stand apart in the source and are kept apart here.

How the values were obtained:
5-HT2B [1] = molecular target: T1, 5-HT2B (Homo sapiens, UniProt P41595); assay: G-protein-dependent signal transduction, intracellular Ca2+ mobilization; assay type: cell-based; conditions: for IC50: Ca2+ mobilization, read-out: IC50, functional antagonist
T1 construct: expressed in transfected cells
T1 sequence (P41595 whole entry): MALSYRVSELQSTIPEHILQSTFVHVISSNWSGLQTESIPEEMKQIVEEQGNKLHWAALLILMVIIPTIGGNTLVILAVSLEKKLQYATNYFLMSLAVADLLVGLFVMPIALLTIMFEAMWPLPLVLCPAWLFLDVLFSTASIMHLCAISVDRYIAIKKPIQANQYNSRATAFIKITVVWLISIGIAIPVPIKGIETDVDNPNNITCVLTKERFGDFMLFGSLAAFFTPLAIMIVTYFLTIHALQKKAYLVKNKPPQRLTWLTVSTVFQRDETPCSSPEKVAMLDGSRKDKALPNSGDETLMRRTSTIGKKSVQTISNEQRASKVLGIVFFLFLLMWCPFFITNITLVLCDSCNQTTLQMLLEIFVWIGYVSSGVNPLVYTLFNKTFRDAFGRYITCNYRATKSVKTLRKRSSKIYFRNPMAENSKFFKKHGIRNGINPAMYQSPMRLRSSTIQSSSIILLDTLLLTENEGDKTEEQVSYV
Procedure: (§1) Quantitation was based on peak area ratio of the analytes versus their stable labeled internal standards. A weighted (1/C2), linear regression was performed to determine the concentration of the analytes. All regressions and figures presented in this validation report were generated by MDS Sciex Analyst version 1.4.2 and Thermo Electron Corporation Watson LIMS software, version 7.0.0.01b. […] Select receptors were analyzed in ligand-induced intracellular calcium mobilization.

5-HT2A [2] = molecular target: T2, 5-HT2A (Homo sapiens, UniProt P28223); assay: as above; assay type: cell-based; conditions: for IC50: Ca2+ mobilization, read-out: IC50, functional antagonist
T2 construct: expressed in transfected cells
T2 sequence (P28223 whole entry): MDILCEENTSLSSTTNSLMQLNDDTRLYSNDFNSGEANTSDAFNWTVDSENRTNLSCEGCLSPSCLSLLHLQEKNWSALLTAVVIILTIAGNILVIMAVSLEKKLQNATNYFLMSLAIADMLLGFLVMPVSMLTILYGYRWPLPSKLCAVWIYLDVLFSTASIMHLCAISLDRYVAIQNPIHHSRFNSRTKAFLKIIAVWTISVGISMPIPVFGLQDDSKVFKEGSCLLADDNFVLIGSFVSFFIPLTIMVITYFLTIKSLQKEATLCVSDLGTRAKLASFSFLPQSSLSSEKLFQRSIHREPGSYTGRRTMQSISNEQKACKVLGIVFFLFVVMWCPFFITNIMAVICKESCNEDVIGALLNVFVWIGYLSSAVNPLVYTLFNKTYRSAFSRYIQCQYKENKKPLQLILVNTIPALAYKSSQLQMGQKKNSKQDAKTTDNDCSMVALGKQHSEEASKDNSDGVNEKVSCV
Procedure: as §1

5-HT2C receptor [3] = molecular target: T3, 5-HT2C receptor (Homo sapiens, UniProt P28335); assay: as above; assay type: cell-based
T3 construct: expressed in transfected cells
T3 sequence (P28335 33-458): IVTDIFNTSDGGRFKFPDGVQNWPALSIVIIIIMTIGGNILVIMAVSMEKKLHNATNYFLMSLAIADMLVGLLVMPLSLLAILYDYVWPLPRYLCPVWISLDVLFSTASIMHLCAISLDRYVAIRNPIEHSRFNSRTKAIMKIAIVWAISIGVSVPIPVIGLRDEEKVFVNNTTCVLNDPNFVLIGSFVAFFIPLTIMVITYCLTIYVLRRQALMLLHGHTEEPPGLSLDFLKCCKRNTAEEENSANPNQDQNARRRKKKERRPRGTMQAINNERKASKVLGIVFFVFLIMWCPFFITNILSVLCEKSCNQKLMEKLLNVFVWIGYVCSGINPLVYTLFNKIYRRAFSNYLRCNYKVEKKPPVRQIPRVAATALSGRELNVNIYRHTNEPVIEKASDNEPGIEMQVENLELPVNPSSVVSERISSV
Procedure: as §1

[4] = molecular target: T4, adrenergic α1B receptor (Alpha1B) (Homo sapiens, UniProt P35368); assay: Equilibrium receptor binding, recombinant human receptor
T4 construct: expressed in transfected cells
T4 sequence (P35368 whole entry): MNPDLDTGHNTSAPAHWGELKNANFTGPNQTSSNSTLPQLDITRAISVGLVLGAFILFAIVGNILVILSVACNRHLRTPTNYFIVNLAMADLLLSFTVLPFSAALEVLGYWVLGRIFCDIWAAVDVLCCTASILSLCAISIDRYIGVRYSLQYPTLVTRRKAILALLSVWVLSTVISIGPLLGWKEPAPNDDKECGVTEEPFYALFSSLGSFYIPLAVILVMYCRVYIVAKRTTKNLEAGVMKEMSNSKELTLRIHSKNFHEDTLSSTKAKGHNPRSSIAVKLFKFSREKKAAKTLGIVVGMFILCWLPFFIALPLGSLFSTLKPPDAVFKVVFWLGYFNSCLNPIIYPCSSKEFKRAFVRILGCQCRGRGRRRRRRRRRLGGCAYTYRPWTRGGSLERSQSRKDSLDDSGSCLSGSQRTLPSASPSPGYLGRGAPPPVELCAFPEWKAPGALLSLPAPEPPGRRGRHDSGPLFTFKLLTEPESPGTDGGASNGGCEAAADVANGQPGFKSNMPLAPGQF

muscarinic M1 receptor [5] = molecular target: T5, muscarinic M1 receptor (Homo sapiens, UniProt P11229); assay: G-protein-independent signal transduction, β-arrestin signaling; assay type: cell-based; parameters: expressed in transfected cells; conditions: for IC50: M1, β-arrestin signaling, read-out: IC50, functional antagonist
T5 sequence (P11229 1-460): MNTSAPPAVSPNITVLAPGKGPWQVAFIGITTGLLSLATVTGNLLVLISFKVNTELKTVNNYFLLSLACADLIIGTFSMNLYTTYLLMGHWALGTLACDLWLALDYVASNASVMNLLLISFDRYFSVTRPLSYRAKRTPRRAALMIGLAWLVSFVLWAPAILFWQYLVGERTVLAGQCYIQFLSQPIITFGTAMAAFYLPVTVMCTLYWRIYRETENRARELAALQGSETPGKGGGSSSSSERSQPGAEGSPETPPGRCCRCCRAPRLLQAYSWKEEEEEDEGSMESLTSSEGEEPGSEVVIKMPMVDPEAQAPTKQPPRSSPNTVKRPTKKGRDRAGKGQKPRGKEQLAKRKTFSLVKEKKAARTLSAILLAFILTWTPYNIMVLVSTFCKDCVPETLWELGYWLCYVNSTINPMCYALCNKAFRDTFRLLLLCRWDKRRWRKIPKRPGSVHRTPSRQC

5-HT2A [6] = molecular target: T2, 5-HT2A; assay: biochemical; assay type: binding; conditions: for Ki: 5-HT2A
D4.4 = molecular target: T6, D4.4 (Homo sapiens, UniProt P21917); assay: Equilibrium receptor binding, recombinant human receptor
T6 construct: expressed in transfected cells
T6 sequence (P21917 whole entry): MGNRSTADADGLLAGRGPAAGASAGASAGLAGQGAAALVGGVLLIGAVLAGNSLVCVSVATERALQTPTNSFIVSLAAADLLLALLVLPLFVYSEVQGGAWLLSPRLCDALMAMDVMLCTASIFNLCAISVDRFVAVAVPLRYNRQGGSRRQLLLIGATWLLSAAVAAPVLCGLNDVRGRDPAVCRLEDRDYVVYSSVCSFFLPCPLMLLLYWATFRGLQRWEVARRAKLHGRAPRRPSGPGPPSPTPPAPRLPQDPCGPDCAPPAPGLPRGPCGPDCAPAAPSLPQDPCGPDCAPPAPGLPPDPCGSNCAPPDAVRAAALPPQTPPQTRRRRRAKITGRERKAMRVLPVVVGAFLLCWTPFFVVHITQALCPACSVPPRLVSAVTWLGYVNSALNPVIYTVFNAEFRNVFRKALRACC

5-HT2B [7] = molecular target: T1, 5-HT2B; assay: as above
D2S = molecular target: T7, D2S (Homo sapiens, UniProt P14416); assay: as above
T7 construct: expressed in transfected cells
T7 sequence (P14416 1-414 isoform P14416-2): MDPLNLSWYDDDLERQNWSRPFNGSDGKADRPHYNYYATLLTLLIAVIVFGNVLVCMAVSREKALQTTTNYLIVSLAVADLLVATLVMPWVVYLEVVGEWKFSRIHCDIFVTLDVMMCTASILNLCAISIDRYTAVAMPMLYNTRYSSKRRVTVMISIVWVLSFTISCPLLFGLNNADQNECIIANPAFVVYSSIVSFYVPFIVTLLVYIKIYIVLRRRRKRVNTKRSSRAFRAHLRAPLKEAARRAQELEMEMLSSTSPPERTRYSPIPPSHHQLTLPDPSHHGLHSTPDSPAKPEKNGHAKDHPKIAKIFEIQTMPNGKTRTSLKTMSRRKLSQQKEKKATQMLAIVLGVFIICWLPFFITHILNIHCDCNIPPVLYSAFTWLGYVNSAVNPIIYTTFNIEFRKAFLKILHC

5-HT2A [8] = molecular target: T2, 5-HT2A; assay: G-protein-dependent signal transduction, turnover of inositol triphosphate (IP); assay type: cell-based; conditions: read-out: IC50 (nM) (Antagonist)
5-HT2C receptor [9] = molecular target: T3, 5-HT2C receptor; assay: Equilibrium receptor binding, recombinant human receptor
dopamine D1 receptor = molecular target: T8, dopamine D1 receptor (Homo sapiens, UniProt P21728); assay: as above
T8 construct: expressed in transfected cells
T8 sequence (P21728 whole entry): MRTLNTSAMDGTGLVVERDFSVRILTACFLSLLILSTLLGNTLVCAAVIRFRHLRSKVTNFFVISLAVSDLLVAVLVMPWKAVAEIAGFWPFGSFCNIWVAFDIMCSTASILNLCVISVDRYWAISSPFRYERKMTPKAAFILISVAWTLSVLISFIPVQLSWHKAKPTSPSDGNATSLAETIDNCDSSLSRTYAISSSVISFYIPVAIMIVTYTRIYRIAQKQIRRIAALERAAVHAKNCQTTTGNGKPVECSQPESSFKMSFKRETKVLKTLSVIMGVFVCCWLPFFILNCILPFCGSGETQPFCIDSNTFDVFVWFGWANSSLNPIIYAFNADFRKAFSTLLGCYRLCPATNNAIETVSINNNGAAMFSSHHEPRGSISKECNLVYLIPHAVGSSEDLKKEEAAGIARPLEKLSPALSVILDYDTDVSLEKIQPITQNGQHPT

muscarinic M1 receptor [10] = molecular target: T5, muscarinic M1 receptor; assay: biochemical
α1B = α1B (Homo sapiens, UniProt P35368); assay: Functional antagonism, G-protein-dependent signal transduction (Table 69)
Sequence of α1B (P35368 whole entry): as the sequence (P35368 whole entry) above

5-HT5A receptor = molecular target: T9, 5-HT5A receptor (Homo sapiens, UniProt P47898); assay: Equilibrium receptor binding, recombinant human receptor
T9 construct: expressed in transfected cells
T9 sequence (P47898 whole entry): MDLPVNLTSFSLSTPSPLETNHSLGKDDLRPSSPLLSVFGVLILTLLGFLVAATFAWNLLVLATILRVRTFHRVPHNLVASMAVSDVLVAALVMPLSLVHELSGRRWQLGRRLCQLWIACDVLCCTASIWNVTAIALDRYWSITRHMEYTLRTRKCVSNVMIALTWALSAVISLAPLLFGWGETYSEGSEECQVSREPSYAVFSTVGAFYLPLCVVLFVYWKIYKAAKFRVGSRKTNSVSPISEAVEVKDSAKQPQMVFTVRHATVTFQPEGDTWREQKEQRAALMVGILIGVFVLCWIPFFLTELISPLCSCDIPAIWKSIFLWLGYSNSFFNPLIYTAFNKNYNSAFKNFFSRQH

5-HT7 = molecular target: T10, 5-HT7 (Homo sapiens, UniProt P34969); assay: as above
T10 construct: expressed in transfected cells
T10 sequence (P34969 whole entry): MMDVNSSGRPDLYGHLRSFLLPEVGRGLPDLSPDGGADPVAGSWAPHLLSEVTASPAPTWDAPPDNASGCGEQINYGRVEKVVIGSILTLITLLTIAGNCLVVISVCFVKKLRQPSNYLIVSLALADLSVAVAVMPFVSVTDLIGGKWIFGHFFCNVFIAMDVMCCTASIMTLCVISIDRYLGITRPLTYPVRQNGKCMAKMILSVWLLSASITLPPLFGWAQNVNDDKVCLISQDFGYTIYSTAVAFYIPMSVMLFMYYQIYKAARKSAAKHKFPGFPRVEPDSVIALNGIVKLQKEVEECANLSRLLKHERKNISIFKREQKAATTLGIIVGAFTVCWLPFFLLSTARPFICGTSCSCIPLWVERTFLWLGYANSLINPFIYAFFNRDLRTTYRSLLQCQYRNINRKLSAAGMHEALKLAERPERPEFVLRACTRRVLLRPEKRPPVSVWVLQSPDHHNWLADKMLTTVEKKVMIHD

[11] = molecular target: T11, adrenergic alpha-2C receptor (Alpha2C) (Homo sapiens, UniProt P18825); assay: as above
T11 construct: expressed in transfected cells
T11 sequence (P18825 1-462): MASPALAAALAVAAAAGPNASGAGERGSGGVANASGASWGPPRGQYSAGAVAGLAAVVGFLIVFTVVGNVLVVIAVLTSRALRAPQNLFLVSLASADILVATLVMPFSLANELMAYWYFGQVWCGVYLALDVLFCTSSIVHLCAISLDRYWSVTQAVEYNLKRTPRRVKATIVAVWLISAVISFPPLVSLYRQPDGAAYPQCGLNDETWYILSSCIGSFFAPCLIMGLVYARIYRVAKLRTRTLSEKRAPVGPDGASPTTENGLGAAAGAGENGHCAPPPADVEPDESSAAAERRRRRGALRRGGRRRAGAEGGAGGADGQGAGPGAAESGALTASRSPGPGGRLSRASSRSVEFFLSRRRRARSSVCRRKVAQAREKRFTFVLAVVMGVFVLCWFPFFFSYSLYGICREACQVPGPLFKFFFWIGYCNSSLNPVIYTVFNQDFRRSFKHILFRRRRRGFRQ

[12] = molecular target: T12, adrenergic alpha-2A receptor (Homo sapiens, UniProt P08913); assay: Functional antagonism, ligand-induced intracellular calcium mobilization; assay type: cell-based; conditions: read-out: IC50, functional antagonist
T12 construct: expressed in transfected cells
T12 sequence (P08913 whole entry): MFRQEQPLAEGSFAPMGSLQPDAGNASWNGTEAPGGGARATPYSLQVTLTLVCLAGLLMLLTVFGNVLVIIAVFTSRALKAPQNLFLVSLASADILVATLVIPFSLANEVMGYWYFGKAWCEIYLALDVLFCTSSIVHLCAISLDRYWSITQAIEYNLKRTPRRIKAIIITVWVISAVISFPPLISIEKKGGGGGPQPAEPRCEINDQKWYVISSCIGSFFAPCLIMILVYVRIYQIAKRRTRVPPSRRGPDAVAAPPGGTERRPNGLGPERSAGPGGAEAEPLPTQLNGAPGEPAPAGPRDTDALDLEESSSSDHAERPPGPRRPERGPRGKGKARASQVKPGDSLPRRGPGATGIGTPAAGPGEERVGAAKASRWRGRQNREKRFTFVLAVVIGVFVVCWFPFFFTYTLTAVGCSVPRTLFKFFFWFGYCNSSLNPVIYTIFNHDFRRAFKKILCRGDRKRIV
Procedure: as §1

[13] = 5-HT2c, read-out: IC50, functional antagonist

| SMILES | IC50 (5-HT2B [1]) [nM] | IC50 (5-HT2A [2]) | IC50 (5-HT2C receptor [3]; [13]) [nM] | Ki [4] [nM] | IC50 (muscarinic M1 receptor [5]) [nM] | Ki (5-HT2A [6]) | Ki (D4.4) [nM] | Ki (5-HT2B [7]) [nM] | Ki (D2S) [nM] | IC50 (5-HT2A [8]) [nM] | Ki (5-HT2C receptor [9]) | Ki (dopamine D1 receptor) [nM] | Ki (muscarinic M1 receptor [10]) [nM] | IC50 (α1B) [nM] | Ki (5-HT5A receptor) [nM] | Ki (5-HT7) [nM] | Ki [11] | IC50 [12] [nM] | also measured |
| --- | --- | --- | --- | --- | --- | --- | --- | --- | --- | --- | --- | --- | --- | --- | --- | --- | --- | --- | --- |
| CN(C)CCC=C1c2ccccc2C=Cc2ccccc21 [cyclobenzaprine, 3-(5H-dibenzo[a,d]cyclohepten-5-ylidene)-N,N-dimethyl-1-propanamine] | 100 | 230 nM | 440 | 9.1 | 81 | 5.2 nM and 5.1 nM | 180 | 15 | 120 | 210 | 5.2 nM and 43 nM | 12 | 7.9 | 530 | 730 | 67 | 21 nM and 25 nM | 4300 | IC50 (5-HT2C receptor [3]; 5-HT2C, read-out: IC50 (nM) (Antagonist)): 444 nM |
| CNCCC=C1c2ccccc2C=Cc2ccccc21 [norcyclobenzaprine, 3-(5H-dibenzo[a,d]cyclohepten-5-ylidene)-N-methyl-1-propanamine] | 580 | 92 nM and 140 nM | 1220 | 11 | 266 | 13 nM and 13.2 nM | 250 | 12 | 410 | 450 | 43 nM | 57 | 30 | 790 | 1600 | 140 | 48 nM | 6400 | Four parameter Hill slope (or fit slope) ratio; Ca2+ signaling (5-HT2B [1]): 1.54; Four parameter Hill slope (or fit slope) ratio; Ca2+ signaling (5-HT2A [2]): 1.27; Four parameter Hill slope (or fit slope) ratio; Ca2+ signaling (5-HT2C receptor [3]; 5-HT2C): 0.94; Four parameter Hill slope (or fit slope) ratio; β-arrestin signaling (muscarinic M1 receptor [5]; M1): 1.05; Hill plot ratio (Hill slope) (5-HT2A [6]): 0.50; Hill plot ratio (Hill slope) (5-HT2B [7]; equilibrium binding): 1.10; Hill plot ratio (Hill slope) (5-HT2C receptor [9]; equilibrium binding): 1.40; Hill plot ratio (Hill slope) (dopamine D1 receptor; equilibrium binding): 1.15 |
